Values after ≈ are worked out from the molar mass of the structure shown.
These compounds were tested on Staphylococcus aureus NRS384 (MRSA USA300) (assay: Initial MIC screening, broth microdilution (CLSI)). Details: MRSA USA300, Table 1 assay.
Assay type: cell-based
Description: Method: The minimum inhibitory concentration (MIC) of the compounds 1-187, and control antibiotics (vancomycin, linezolid) was determined using the broth microdilution method against methicillin-resistant Staphylococcus aureus (MRSA) USA 300 using the broth microdilution method according to the guidelines outlined by the Clinical and Laboratory Standards Institute (CLSI). MRSA strain was cultivated on Tryptic soy agar plates and let grow for 24 hours at 37° C. under aerobic conditions. Bacterial suspension equivalent to 0.5 McFarland standard was prepared and diluted in cation-adjusted Mueller-Hinton broth (CAMHB) to attain a bacterial concentration of 5×10^5 CFU/ml and seeded in 96-well plates. The desired concentrations of each drug and compound were added in the first row of the 96-well plates and serially diluted to achieve a concentration gradient from 64 μg/ml to 0.5 μg/mL.

SMILES | potency compared with control antibiotic
O=C1O[C@H](c2ccc3ccccc3c2)[C@H](c2ccc3ccccc3c2)C1CN1CCCCC1 (stereo partly shown) [Compound 167] | potency comparable to vancomycin

Same assay, conditions: Staphylococcus aureus NRS384 (MRSA USA300), broth microdilution, visual reading

MIC | SMILES
64 µg/mL (≈ 206 µM) | C=C1C(=O)O[C@H](c2ccc(OC)cc2)[C@@H]1c1ccc(OC)cc1 [Compound 68]
16 µg/mL (≈ 63.9 µM) | C=C1C(=O)O[C@H](c2ccccc2)[C@@H]1c1ccccc1 [Compound 150]
≤1 µg/mL | C=C1C(=O)O[C@H](c2ccccc2)[C@@H]1c1ccc2ccccc2c1 [Compound 109]
32 µg/mL (≈ 107 µM) | C=C1C(=O)O[C@H](c2ccc3ccccc3c2)[C@@H]1c1ccccc1 [Compound 21]
8 µg/mL (≈ 26.6 µM) | C=C1C(=O)O[C@H](c2ccccc2)[C@@H]1c1ccc2ccccc2c1 [Compound 107]
8 µg/mL (≈ 26.6 µM) | C=C1C(=O)O[C@H](c2ccccc2)[C@@H]1c1ccc2ccccc2c1 [Compound 152]
128 µg/mL (≈ 425 µM) | C=C1C(=O)O[C@H](c2ccnc3ccccc23)[C@H]1c1ccccc1 [Compound 120]
>128 µg/mL | CCN(CC)CC1C(=O)O[C@H](c2ccc3ccccc3c2)[C@H]1c1ccccc1 (stereo partly shown) [Compound 108]

Same assay, conditions: Staphylococcus aureus, Staphylococcus aureus NRS384 (MRSA USA300), broth microdilution, visual reading; read-out: MIC

MIC | SMILES
> 64 µg/mL | C=C1C(=O)OC(C2=CC=CCC2)C1C1CCCCC1 (stereo not shown) [Compound 185]
64 µg/mL (≈ 228 µM) | C=C1C(=O)O[C@H](c2ccccc2)[C@@H]1c1ccc(OC)cc1 [Compound 72]
128 µg/mL (≈ 377 µM) | COc1ccc([C@@H]2C(CN(C)C)C(=O)O[C@@H]2c2ccc(C)cc2)cc1 (stereo partly shown) [Compound 86]
128 µg/mL (≈ 350 µM) | C=C1C(=O)O[C@H](c2cc(OC)c(OC)c(OC)c2)[C@@H]1c1ccc(C#N)cc1 [Compound 54]
16 µg/mL (≈ 55.3 µM) | C=C1C(=O)O[C@H](c2ccc(C#N)cc2)[C@@H]1c1ccc(C)cc1 [Compound 37]
> 128 µg/mL | C=C1C(=O)O[C@H](c2ccccc2)[C@@H]1c1ccc(C#N)cc1 [Compound 69]
32 µg/mL (≈ 121 µM) | C=C1C(=O)O[C@H](c2ccc(C)cc2)[C@@H]1c1ccccc1 [Compound 71]
4 µg/mL (≈ 11.3 µM) | C=C1C(=O)O[C@H](c2ccccc2Br)[C@@H]1c1ccc(C#N)cc1 [Compound 12]
> 64 µg/mL | C=C(C(=O)OC)C(c1cccc2ccccc12)C(O)c1cccc2ccccc12 (stereo not shown) [Compound 145]
> 64 µg/mL | O=C1O[C@H](c2cccc3ccccc23)[C@H](c2ccc3ccccc3c2)C1CN1CCCCC1 (stereo partly shown) [Compound 164]
16 µg/mL (≈ 44.5 µM) | C=C1C(=O)O[C@H](c2ccccc2OC)[C@@H]1c1ccccc1Br [Compound 40]
> 128 µg/mL | C=C1C(=O)O[C@H](CCCCCCCC)[C@@H]1/C=C/c1ccccc1 [Compound 51]
> 128 µg/mL | Cc1ccc([C@@H]2C(S3=NCCS3)C(=O)O[C@@H]2C2CCCCC2)cc1 (stereo partly shown) [Compound 91]
64 µg/mL (≈ 210 µM) | C=C1C(=O)O[C@H](c2cccc(OC)c2)[C@@H]1c1ccc(C#N)cc1 [Compound 19]
8 µg/mL (≈ 22.3 µM) | C=C1C(=O)O[C@H](c2ccc(OC)cc2)[C@@H]1c1ccc(Br)cc1 [Compound 2]
16 µg/mL (≈ 48.1 µM) | C=C(C(=O)OC)C(c1ccccc1)C(O)c1ccc2ccccc2c1 (stereo not shown) [Compound 143]
32 µg/mL (≈ 128 µM) | C=C1C(=O)O[C@H](c2ccccc2)[C@@H]1c1ccccc1 [Compound 103]
128 µg/mL (≈ 365 µM) | COc1ccc([C@@H]2[C@H](CN(C)C)C(=O)O[C@@H]2c2ccc(C#N)cc2)cc1 [Compound 9]
256 µg/mL (≈ 879 µM) | C=C1C(=O)O[C@H](c2ccc(O)cc2)[C@@H]1c1ccc(C#N)cc1 [Compound 4]
> 128 µg/mL | CCC[C@@H]1[C@H](CN2CCCCC2)C(=O)O[C@H]1c1ccc(SC)cc1 [Compound 45]
128 µg/mL (≈ 416 µM) | C=CCNC[C@@H]1C(=O)O[C@H](c2ccccc2)[C@@H]1c1ccccc1 [Compound 63]
> 128 µg/mL | COc1ccc([C@H]2OC(=O)C(CN(C)C)[C@H]2c2ccc(OC)cc2)cc1 (stereo partly shown) [Compound 82]
> 64 µg/mL | O=C1OC(c2ccccc2)C(C2CCCCC2)C1CN1CCCCC1 (stereo not shown) [Compound 186]
2 µg/mL (≈ 4.59 µM) | O=C1O[C@H](c2ccc3ccccc3c2)[C@H](c2ccc3ccccc3c2)C1CN1CCCCC1 (stereo partly shown) [Compound 167]

MIC | SMILES
32 µg/mL (≈ 106 µM) | C=C1C(=O)O[C@H](c2ccnc3ccccc23)[C@@H]1c1ccccc1 [Compound 114]
4 µg/mL (≈ 12.2 µM) | C=C1C(=O)O[C@H](c2ccccc2)[C@@H]1c1ccccc1Br [Compound 53]
> 128 µg/mL | O=C1O[C@H](c2ccc3ccccc3c2)CC1CN1CCCCC1 (stereo partly shown) [Compound 31]
> 64 µg/mL | C=C1C(=O)OC(C2CCCCC2)C1c1ccccc1 (stereo not shown) [Compound 181]
16 µg/mL (≈ 55.9 µM) | C=C1C(=O)O[C@H](c2cccc(F)c2F)[C@H]1c1ccccc1 [Compound 10]
> 128 µg/mL | CC(=O)Oc1cc([C@H]2OC(=O)C(CN3CCOCC3)[C@H]2c2ccccc2Br)ccc1OCc1ccccc1 (stereo partly shown) [Compound 57]
16 µg/mL (≈ 56.7 µM) | C=C(C(=O)OC)C(c1ccccc1)C(O)c1ccccc1 (stereo not shown) [Compound 141]
32 µg/mL (≈ 108 µM) | CN(C)CC1C(=O)O[C@H](c2ccccc2)[C@H]1c1ccccc1 (stereo partly shown) [Compound 11]
8 µg/mL (≈ 20.8 µM) | O=C1O[C@H](c2cccc3ccccc23)[C@H](c2ccccc2)C1CN1CCCCC1 (stereo partly shown) [Compound 162]
8 µg/mL (≈ 27.9 µM) | C=C1C(=O)O[C@H](c2c(F)cccc2F)[C@@H]1c1ccccc1 [Compound 100]
64 µg/mL (≈ 230 µM) | C=C1C(=O)O[C@H](c2ccc(C)cc2)[C@@H]1c1ccc(C)cc1 [Compound 67]
16 µg/mL (≈ 85 µM) | C=C1C(=O)O[C@H](c2ccccc2)[C@@H]1C [Compound 97]
> 128 µg/mL | O=C1OC[C@H](/C=C/c2ccccc2)[C@@H]1CN1CCCCC1 [Compound 46]
64 µg/mL (≈ 197 µM) | COc1ccc([C@@H]2C(CN(C)C)C(=O)O[C@@H]2c2ccccc2)cc1 (stereo partly shown) [Compound 17]
16 µg/mL (≈ 66.9 µM) | C=C1C(=O)O[C@H](c2cc3ccccc3cn2)[C@@H]1C [Compound 105]
> 128 µg/mL | C=C1C(=O)O[C@H](c2cccc(F)c2)[C@@H]1CCC [Compound 84]
16 µg/mL (≈ 53.3 µM) | C=C1C(=O)O[C@H](c2ccc3ccccc3c2)[C@@H]1c1ccccc1 [Compound 156]
> 128 µg/mL | O=C1OC2(CCCC2)CC1CN1CCCCC1 (stereo not shown) [Compound 58]
16 µg/mL (≈ 41.5 µM) | O=C1O[C@H](c2ccccc2)[C@H](c2ccc3ccccc3c2)C1CN1CCCCC1 (stereo partly shown) [Compound 161]
16 µg/mL (≈ 52.4 µM) | C=C1C(=O)O[C@H](c2ccccc2OC)[C@@H]1c1cccc(C#N)c1 [Compound 49]
32 µg/mL (≈ 98.9 µM) | Cc1ccc([C@@H]2[C@H](CN(C)C)C(=O)O[C@@H]2c2ccc(C)cc2)cc1 [Compound 6]
> 128 µg/mL | CCC[C@H]1COC(=O)C1CN1CCCCC1 (stereo partly shown) [Compound 41]
64 µg/mL (≈ 169 µM) | COc1ccc([C@@H]2C(CN3CCCCC3)C(=O)O[C@@H]2c2ccc(C)cc2)cc1 (stereo partly shown) [Compound 35]
32 µg/mL (≈ 93.7 µM) | O=C1OC(C2CCCCC2)[C@H](c2ccccc2)C1CN1CCCCC1 (stereo partly shown) [Compound 182]

MIC | SMILES
8 µg/mL (≈ 24.1 µM) | C=C(C(=O)OC)C(c1ccc2ccccc2c1)C(O)c1ccccc1 (stereo not shown) [Compound 147]
16 µg/mL (≈ 40.3 µM) | C=C1C(=O)O[C@H](c2ccc(C(F)(F)F)cc2)[C@@H]1c1cccc(Br)c1 [Compound 88]
8 µg/mL (≈ 21.4 µM) | CCN(CC)CC1C(=O)O[C@H](c2ccccc2)[C@@H]1c1cccc2ccccc12 (stereo partly shown) [Compound 173]
> 128 µg/mL | O=C1O[C@H](c2ccccc2)CC1CN1CCCCC1 (stereo partly shown) [Compound 32]
16 µg/mL (≈ 42.3 µM) | C/C=C/[C@H]1OC(=O)C(CN2CCCCC2)[C@H]1c1ccc(Br)cc1 (stereo partly shown) [Compound 29]
2 µg/mL (≈ 6.66 µM) | C=C1C(=O)O[C@H](c2ccccc2)[C@H]1c1ccc2ccccc2c1 [Compound 115]
> 128 µg/mL | C=C1C(=O)O[C@H](c2ccc([N+](=O)[O-])cc2)[C@@H]1C [Compound 102]
> 128 µg/mL | C=C1C(=O)O[C@H](c2ccc(N(C)C)cc2)[C@@H]1c1ccccc1 [Compound 98]
> 128 µg/mL | CN(C)CC1C(=O)O[C@H](c2ccccc2)[C@@H]1c1ccc(C#N)cc1 (stereo partly shown) [Compound 16]
> 256 µg/mL | COc1ccc([C@H]2OC(=O)[C@@H](CN(C)C)[C@H]2c2ccccc2)cc1 [Compound 8]
> 128 µg/mL | Cc1ccc([C@H]2OC(=O)C(CN(C)C)[C@H]2c2ccc(C#N)cc2)cc1 (stereo partly shown) [Compound 14]
128 µg/mL (≈ 515 µM) | C=C1C(=O)O[C@H]2[C@H]1CC/C(C)=C/CC[C@@]1(C)O[C@@H]21 [Compound 125, Parthenolide, reference compound]
32 µg/mL (≈ 105 µM) | C=C1C(=O)O[C@H](c2ccccc2OC)[C@@H]1c1ccc(C#N)cc1 [Compound 42]
4 µg/mL (≈ 11.3 µM) | C=C1C(=O)O[C@H](c2ccc(Br)cc2)[C@@H]1c1ccc(C#N)cc1 [Compound 13]
8 µg/mL (≈ 23 µM) | C=C1C(=O)O[C@H](c2ccc(OC)cc2)[C@@H]1c1ccc(C(F)(F)F)cc1 [Compound 79]
> 128 µg/mL | O=C1OC[C@H](c2ccco2)C1CN1CCCCC1 (stereo partly shown) [Compound 76]
> 128 µg/mL | C[C@@]1(c2ccccc2)CC(CN2CCCCC2)C(=O)O1 (stereo partly shown) [Compound 33]
> 64 µg/mL | O=C1O[C@H](c2cccc3ccccc23)[C@H](c2cccc3ccccc23)C1CN1CCCCC1 (stereo partly shown) [Compound 163]
> 128 µg/mL | CCN(CC)CC1C(=O)O[C@H](c2ccc3ccccc3c2)[C@H]1c1ccccc1 (stereo partly shown) [Compound 95]
64 µg/mL (≈ 232 µM) | C=C1C(=O)O[C@H](c2ccc(C#N)cc2)[C@@H]1c1ccccc1 [Compound 39]
> 128 µg/mL | C=C1C(=O)OC[C@@H]1c1ccccc1 [Compound 25]
32 µg/mL (≈ 103 µM) | C=C1C(=O)O[C@H](c2ccc(OC)cc2)[C@@H]1c1ccc(OC)cc1 [Compound 66]
32 µg/mL (≈ 106 µM) | C=C1C(=O)O[C@H](c2cnc3ccccc3c2)[C@H]1c1ccccc1 [Compound 99]
> 128 µg/mL | C=C1C(=O)O[C@H](c2c(OC)cc(OC)cc2OC)[C@@H]1c1ccc(C(F)(F)F)cc1 [Compound 61]

SMILES | MIC
C=C1C(=O)O[C@H](CCO[Si](c2ccccc2)(c2ccccc2)C(C)(C)C)[C@@H]1c1ccc(C)cc1 [Compound 52] | > 128 µg/mL

Reference: patent US20210317099A1, “SAFER, POTENT, AND FAST ACTING ANTIMICROBIAL AGENTS” (Purdue Research Foundation, priority 2020, published 2021)
